Consider one molecule from US8338420B1, “Treatment of Parkinson's disease and enhancement of dopamine signal using PDE 10 inhibitor” (Mitsubishi Tanabe Pharma Corporation, priority 2002, dated 2012).

The structures appear in SMILES notation.

This assay deals with marmoset MPTP model. Put plainly: Marmoset MPTP model, effect on L-dopa efficacy. The format is in vivo. The following applies: 0.3 mg/kg or 1 mg/kg, i.v., together with L-dopa, versus vehicle with L-dopa. On the procedure:
Using marmoset MPTP models, effects of test compound on pharmaceutical efficacy of L-dopa administration were tested as follows.
About 16 weeks before carrying out the tests, marmosets were administered with MPTP (1-methyl-4-phenyl-1,2,3,6-tetrahydropyridine) (2.5 mg/kg, i.v.), according to the method described in the literature (Fukuzaki et al., Pharmacol. Biochem. Behav., vol. 67 No. 1, pp. 121-129, September 2000), to degenerate dopaminergic neurons in the brain, and individuals showing parkinsonian symptoms were used.
Using these marmosets (age 3-4 years, bodyweight 300-400 g), the following three kinds of tests were performed. […]
After administration of test compound (PDE10 inhibitor) (or vehicle) and L-dopa+benserazide, each individual was transferred to an activity cage equipped with four photo cell sensor units, and observation was continued for 6 hours at longest. For each individual, locomotor activity and motor disability score were evaluated in every 10-minute interval.
Motor disability was assessed according to the following 7 evaluation items, and total score of the 7 items were regarded as the motor disability score. […]

As to `COc1ccc(-c2cc(N3CCCC3)nc(/C=C/c3nc(-n4ccnc4)c4ccccc4n3)n2)cc1OC` [Compound A, 2-{(E)-2-[4-(1-imidazolyl)-quinazolin-2-yl]}ethenyl-4-(3,4-dimethoxy)phenyl-6-(pyrrolidin-1-yl)pyrimidine], the “effects of L-dopa to alleviate symptoms (locomotor activity and motor disability score)” value is given as “enhanced and/or prolonged duration of effects of L-dopa to alleviate symptoms”.
